This is an account of results in patent EP0326329B1, “Quinazoline derivatives useful as insecticides” (Dow AgroSciences LLC, priority 1988, dated 1989).

Assay type in all cases: in vivo
The subject of series [1] is Erysiphe graminis tritici (powdery mildew). As to the kind of experiment: Greenhouse Test 1, foliar spray fungicide screen (POWD MDEW), host wheat. Conditions: disease control rating, 400 ppm (+++ at 100 ppm).
The test system of series [2] is Pyricularia oryzae (rice blast). Conditions: disease control rating, foliar spray, host rice; 400 ppm (+++ at 100 ppm).
Series [3] deals with Puccinia recondita tritici (leaf rust). Nature of the series: Greenhouse Test 1, foliar spray fungicide screen (LEAF RUST), host wheat. The note with it: disease control rating, 400 ppm (+++ at 100 ppm).
In series [4] the test system is Botrytis cinerea (gray mold). Nature of the series: Greenhouse Test 1, foliar spray fungicide screen (GRAY MOLD), host grape berries. The note with it: disease control rating, 400 ppm (+++ at 100 ppm).
In series [5] the test system is Pseudoperonospora cubensis (downy mildew). Nature of the series: Greenhouse Test 1, foliar spray fungicide screen (DOWN MDEW), host squash. Conditions: disease control rating, 400 ppm (+++ at 100 ppm).
The subject of series [6] is Southern corn rootworm (Diabrotica undecimpuctata howardi Barber). Nature of the series: Mite/insect screen, soil treatment (CRW). Conditions: percent mortality, soil treatment; for mortality at 24 ppm / mortality at 12 ppm: Diabrotica, read-out: CRW RESULTS %; for mortality at 24 ppm: CRW rate 24.00 ppm. In short, it runs like this:
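Five 2–3 instar larvae were placed on dry sandy soil with a presoaked corn seed after the soil had received 1 mL of compound solution and dried 6–12 h; cups were kept capped at 23°C. Mortality (%) and phytotoxicity were read after standard exposure. Formulation: acetone/alcohol with emulsifiers, water-diluted.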

The test system of series [7] is southern armyworm (Spodopetra eridania Cramer). Nature of the series: Mite/insect screen, sprayed squash leaves (SAW). Conditions: percent mortality; for mortality at 400 ppm / mortality at 200 ppm: Spodoptera eridania, read-out: SAW RESULTS %. A digest of the protocol: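 Steps: formulate compound in acetone/alcohol 50:50 carrying emulsifiers; dilute with water; spray leaves until runoff on upper and lower surfaces; air-dry one hour; for armyworm, excise two […] leaves into a dish of larvae; after exposure, score mortality and plant injury.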

For series [8], the system named is Twospotted spider mites (Tetranychus urticae Koch). As to the kind of experiment: Mite/insect screen, sprayed squash cotyledons (SM). Conditions: percent mortality; for mortality at 400 ppm / mortality at 200 ppm: Tetranychus urticae, read-out: SM RESULTS %; for mortality at 400 ppm: spray rate 400 ppm. In short, it runs like this:
(§1)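 Compounds dissolved in acetone/alcohol with TOXIMUL R/S emulsifiers, diluted with water to test concentrations, and sprayed to runoff on both leaf surfaces at 10 psi, then dried 1 h. Excised treated squash leaves given southern armyworm larvae; aphid and spider mite tests on sprayed squash cotyledons. Percent mortality and phytotoxicity scored after standard exposure.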

Series [9] deals with melon aphids (Aphis gossypii Glover). As to the kind of experiment: Mite/insect screen, sprayed squash cotyledons (MA). The note with it: percent mortality; for mortality at 400 ppm / mortality at 200 ppm: Aphis gossypii, read-out: MA RESULTS %; for mortality at 400 ppm: spray rate 400 ppm. A digest of the protocol:
as §1

For `Cc1cccc(CCOc2ncnc3ccccc23)c1` [Example 97, 4-[2-(3-methylphenyl)ethoxy]quinazoline], the “POWD MDEW” value in [1] was “+++ (+++ = 90-100% control at 100 ppm)”. Moreover, the “RICE BLAST” value in series [2] was “++ (++ = 90-100% control at 400 ppm)”. Further, the “LEAF RUST” value in series [3] is given as “+++ (+++ = 90-100% control at 100 ppm)”. The “GRAY MOLD” value in series [4] is given as “- (- = 0-19% control at 400 ppm)”. In series [5], the “DOWN MDEW” value was “++ (++ = 90-100% control at 400 ppm)”. In addition, in series [6], the mortality at 24 ppm was determined as 0%. The mortality at 400 ppm in series [7] (spray rate 400 ppm), in series [8] and in series [9] was 0% in each case.

In the case of `Fc1cccc2c(OCCc3ccc(-c4ccccc4)cc3)ncnc12` [Example 116, 8-fluoro-4-[2-(1,1'-biphenyl)-4-ylethoxy]quinazoline], the “POWD MDEW” value in series [1] is on record as “++ (++ = 90-100% control at 400 ppm)”. Also, the “RICE BLAST” value in [2] was “+++ (+++ = 90-100% control at 100 ppm)”. Besides, in series [3], the “LEAF RUST” value is “+ (+ = 20-89% control at 400 ppm)”. For the same compound, the “GRAY MOLD” value in [4] is given as “- (- = 0-19% control at 400 ppm)”. Moreover, the “DOWN MDEW” value in [5] is listed as “+++ (+++ = 90-100% control at 100 ppm)”. For the same compound, in series [6] (CRW rate 12.00 ppm), the mortality at 12 ppm came out at 0%. Besides, the mortality at 24 ppm in [6] was found to be 0%. For the same compound, the “SAW RESULTS %” value in series [7] (spray rate 200 ppm) and in series [7] (spray rate 400 ppm) was 0% throughout. Also, the mortality at 400 ppm in series [8] and in [9] was 0% in each case.

For `CC(C)(C)c1ccc(CCCNc2ncnc3ccc(Cl)cc23)cc1` [Example 140, 6-chloro-N-(3-[4-(1,1-dimethylethyl)phenyl]propyl]-4-quinazoline], the “POWD MDEW” value in series [1] was “+ (+ = 20-89% control at 400 ppm)”. The “RICE BLAST” value in series [2] is listed as “++ (++ = 90-100% control at 400 ppm)”. Also, in series [3], the “LEAF RUST” value is on record as “+ (+ = 20-89% control at 400 ppm)”. Further, the “GRAY MOLD” value in series [4] is on record as “- (- = 0-19% control at 400 ppm)”. Besides, the “DOWN MDEW” value in series [5] was “++ (++ = 90-100% control at 400 ppm)”. Besides, the mortality at 12 ppm in [6] (CRW rate 12.00 ppm) was 0%. Also, the mortality at 24 ppm in [6] worked out at 0%. The mortality at 200 ppm in series [7] (spray rate 200 ppm), in [8] (spray rate 200 ppm) and in series [9] (spray rate 200 ppm) was 0% throughout. Also, the mortality at 400 ppm in series [7] (spray rate 400 ppm) is 0%; in series [8] it was 80%; in series [9], 0%.

As to `Clc1ccc2ncnc(NCCc3ccccc3Oc3ccccc3)c2c1` [Example 57, 6-chloro-N-[2-(2-phenoxyphenyl)ethyl]-4-quinazolinamine], the “POWD MDEW” value in [1] is recorded as “- (- = 0-19% control at 400 ppm)”. Besides, the “RICE BLAST” value in [2] was “- (- = 0-19% control at 400 ppm)”. Further, in series [3], the “LEAF RUST” value is “- (- = 0-19% control at 400 ppm)”. For the same compound, the “GRAY MOLD” value in series [4] is “- (- = 0-19% control at 400 ppm)”. In addition, in series [5], the “DOWN MDEW” value is “- (- = 0-19% control at 400 ppm)”. Further, in series [6] (CRW rate 12.00 ppm), the mortality at 12 ppm is 0% and the “CRW RESULTS %” value is 0%. In addition, in series [6], the mortality at 24 ppm was determined as 0%. Moreover, in series [7] (spray rate 200 ppm), the mortality at 200 ppm is 80% and the “SAW RESULTS %” value turned out to be 100%. In series [7] (spray rate 400 ppm), the mortality at 400 ppm amounted to 0%. Further, in series [8] (spray rate 200 ppm), the mortality at 200 ppm amounted to 0% and the “SM RESULTS %” value is reported as 0%. Further, the mortality at 400 ppm in series [8] turned out to be 0%. In series [9] (spray rate 200 ppm), the mortality at 200 ppm stood at 0% and the “MA RESULTS %” value is reported as 0%. Further, the mortality at 400 ppm in series [9] was found to be 0%.

`Oc1ccc(CCOc2ncnc3ccccc23)cc1` [Example 115, 4-[2-(4-hydroxyphenyl)ethoxy]quinazoline]: the “POWD MDEW” value in series [1] is given as “+ (+ = 20-89% control at 400 ppm)”. In addition, in series [2], the “RICE BLAST” value is on record as “+ (+ = 20-89% control at 400 ppm)”. Also, the “LEAF RUST” value in series [3] is “+++ (+++ = 90-100% control at 100 ppm)”. In [4], the “GRAY MOLD” value is listed as “- (- = 0-19% control at 400 ppm)”. Moreover, in [5], the “DOWN MDEW” value is “+ (+ = 20-89% control at 400 ppm)”. Also, the mortality at 12 ppm in series [6] (CRW rate 12.00 ppm) was 0%. The mortality at 24 ppm in series [6] came to 0%. The mortality at 200 ppm in series [7] (spray rate 200 ppm), in series [8] (spray rate 200 ppm) and in series [9] (spray rate 200 ppm) was 0% each time. In addition, the mortality at 400 ppm in series [7] (spray rate 400 ppm), in series [8] and in series [9] was 0% each time.

With `c1ccc(-c2cccc(CCOc3ncnc4ccccc34)c2)cc1` [Example 173, 4-[2-(1,1'-biphenyl)-3-ylethoxy]quinazoline], the “POWD MDEW” value in series [1] is “++ (++ = 90-100% control at 400 ppm)”. In addition, the “RICE BLAST” value in series [2] is “+++ (+++ = 90-100% control at 100 ppm)”. Also, the “LEAF RUST” value in series [3] was “+ (+ = 20-89% control at 400 ppm)”. Also, in [4], the “GRAY MOLD” value is “- (- = 0-19% control at 400 ppm)”. Also, the “DOWN MDEW” value in series [5] was “+ (+ = 20-89% control at 400 ppm)”. In addition, the mortality at 12 ppm in series [6] (CRW rate 12.00 ppm) came out at 0%. Moreover, the mortality at 24 ppm in [6] is 0%. The mortality at 200 ppm amounted to 0% in series [7] (spray rate 200 ppm), 0% in series [8] (spray rate 200 ppm) and 80% in [9] (spray rate 200 ppm). The mortality at 400 ppm in series [7] (spray rate 400 ppm), in [8] and in series [9] was 0% throughout.

For `N#Cc1ccc(CCOc2ncnc3ccccc23)cc1` [Example 183, 4-[2-[(4-quinazolinyl)oxy]ethyl]benzonitrile], the “POWD MDEW” value in series [1] was “+ (+ = 20-89% control at 400 ppm)”. In addition, the “RICE BLAST” value in [2] is “++ (++ = 90-100% control at 400 ppm)”. Also, the “LEAF RUST” value in series [3] is reported as “+++ (+++ = 90-100% control at 100 ppm)”. In series [4], the “GRAY MOLD” value is reported as “- (- = 0-19% control at 400 ppm)”. Also, the “DOWN MDEW” value in [5] was “+ (+ = 20-89% control at 400 ppm)”. Also, in series [6] (CRW rate 12.00 ppm), the mortality at 12 ppm worked out at 0%. Also, in [6], the mortality at 24 ppm was 80%. Besides, the mortality at 200 ppm in series [7] (spray rate 200 ppm), in series [8] (spray rate 200 ppm) and in series [9] (spray rate 200 ppm) was 0% in each case. Also, the mortality at 400 ppm in series [7] (spray rate 400 ppm), in series [8] and in [9] was 0% each time.

Regarding `Brc1ccc(CCOc2ncnc3ccccc23)cc1` [Example 22, 4-[2-(4-bromophenyl)ethoxy]quinazoline], the “POWD MDEW” value in [1] is reported as “+++ (+++ = 90-100% control at 100 ppm)”. Moreover, in [2], the “RICE BLAST” value is listed as “+++ (+++ = 90-100% control at 100 ppm)”. Also, the “LEAF RUST” value in [3] was “+++ (+++ = 90-100% control at 100 ppm)”. The “GRAY MOLD” value in series [4] is listed as “- (- = 0-19% control at 400 ppm)”. The “DOWN MDEW” value in series [5] is listed as “+++ (+++ = 90-100% control at 100 ppm)”. The mortality at 24 ppm in [6] worked out at 0%. Moreover, the figures for the mortality at 400 ppm in [7] (spray rate 400 ppm), in series [8] and in series [9] were 0%, 20% and 80%, respectively.

In the case of `CC(C)c1ccc(CCOc2ncnc3c(F)cccc23)cc1` [Example 16, 8-fluoro-4-[2-[4-(i-propyl)phenyl]ethoxy]-quinazoline], the “POWD MDEW” value in series [1] was “+++ (+++ = 90-100% control at 100 ppm)”. Also, the “RICE BLAST” value in series [2] was “+++ (+++ = 90-100% control at 100 ppm)”. Also, the “LEAF RUST” value in series [3] is “+++ (+++ = 90-100% control at 100 ppm)”. Further, the “GRAY MOLD” value in series [4] is “- (- = 0-19% control at 400 ppm)”. For the same compound, the “DOWN MDEW” value in [5] was “+++ (+++ = 90-100% control at 100 ppm)”. In addition, in [6], the mortality at 24 ppm worked out at 0%. Further, the mortality at 400 ppm in [7] (spray rate 400 ppm), in series [8] and in series [9] was 0% each time.

As for `CC(C)c1ccc(CCNc2ncnc3ccc(Br)cc23)cc1` [Example 79, 6-bromo-N-[2-[4-(i-propyl)phenyl]ethyl]-4-quinazolinamine], in [1], the “POWD MDEW” value is reported as “+ (+ = 20-89% control at 400 ppm)”. In series [2], the “RICE BLAST” value was “+++ (+++ = 90-100% control at 100 ppm)”. Besides, the “LEAF RUST” value in [3] was “++ (++ = 90-100% control at 400 ppm)”. Further, in series [4], the “GRAY MOLD” value was “- (- = 0-19% control at 400 ppm)”. In series [5], the “DOWN MDEW” value was “+++ (+++ = 90-100% control at 100 ppm)”. The mortality at 12 ppm in series [6] (CRW rate 12.00 ppm) stood at 0%. Besides, the mortality at 24 ppm in series [6] is 0%. The mortality at 200 ppm in [7] (spray rate 200 ppm) worked out at 0%; in series [8] (spray rate 200 ppm), 50%; in [9] (spray rate 200 ppm), 50%. Moreover, the mortality at 400 ppm in series [7] (spray rate 400 ppm), in series [8] and in series [9] was 0% throughout.
